Like-named read-outs stand apart in the source and are kept apart here.
Columns and labels:
[1] = system: isolated rat hepatocytes; assay: Glycogenolysis inhibition in isolated rat hepatocytes; format: cell-based; conditions: mean ± S.D. of three, NI means no inhibition
From the text: (§1) To evaluate the effects of all compounds in cells, the glycogenolysis assays were established in both rat and human liver cells based on the published method. […] The inhibitory activities of the derivatives of PSN-357 (e.g. 25–28) were also explored. It is not surprising that the derivatives still retained micromolar inhibitory activities. Introduction of steric bulks to the hydroxyl group (e.g. 33, 40, 42, 48) led to a complete loss of activity. Data analysis indicated no clear SAR for the substitutents in the cell-based assays.
(§2) The inhibition of hepatic glycogenolysis was monitored by the measurement of liver glycogen, which was done quantitatively by the anthrone reagent (Sigma) colorimetric method based on the published method. Isolated rat hepatocytes or HepG2 cells (Sigma) were treated with the test compound or DMSO solvent (final concentration, 0.10%), followed by 60-min incubation with 0.3 nM glucagon (GGN). Assays were terminated by centrifugation, and cells were digested with 30% KOH followed by glycogen determination. The IC50 values were estimated by fitting the inhibition data to a dose-dependent curve using a logistic derivative equation.

[2] = system: HepG2 cells; assay: Glycogenolysis inhibition in HepG2 cells; format: cell-based, human; conditions: HepG2 cells, 60-min incubation with 0.3 nM glucagon, mean ± S.D. of three, NI means no inhibition, read-out: IC50 (glycogenolysis inhibition, HepG2 cells)
From the text: as §1, §2

[3] = Stability in simulated gastric fluid (SGF); format: in vitro ADME; conditions: SGF pH 1.21 with pepsin, 2 μM, 37 °C, 24 h incubation
Protocol: (§3) All the conjugates were tested for their chemical and metabolic stability in multiple assays, including simulated gastric fluid (SGF), simulated interstinal fluid (SIF), mouse plasma, and mouse liver microsome (MLM).
(§4) For the stability in SGF (Fig. 8) and SIF (Fig. 9), the conjugates could be divided into three groups: (1) stable conjugates 2, 6 and 9. […] The two conjugates were degraded within 6 h and 1 h in SGF and SIF, respectively, with alomost no conjugates at the end of the 24 h incubation in both SGF and SIF; (3) complicated conjugates 3, 4, 5 and 8.
(§5) The simulated gastrointestinal fluids were prepared according to USP specifications. For SGF, NaCl (0.12 g) and pepsin (0.18 g, from porcine stomach mucosa) was dissolved in HCl (0.42 mL) and sufficient H2O was added to make 60 mL. The pH of the test solution was determined as 1.21 by pH meter. For the SIF, KH2PO4 (0.408 g) and pancreatin (0.6 g, from porcine pancreas) was dissolved in H2O (60 mL). The pH of the test solution was determined as 6.79 by pH meter. Each test compound was dissolved in DMSO and diluted to a final concentration of 2 μM in SIF and SGF. The final concentrations of DMSO and CH3CN in the incubation mixture were 0.2% and 0.45%. Aliquots of these solutions were pipetted into glass tubes, and placed in a 37 °C shaking water bath. Test samples at corresponding time point (1, 2, 6, 24 h) were removed at the end of incubation time and immediately mixed with 800 μL of cold acetonitrile containing 500 ng/mL tolbutamide (internal standard). Samples were subjected to centrifuge at 4000 rpm, 4 °C for 20 min. Aliquots 60 μL of supernatant was combined with 120 μL water for LC-MS/MS analysis.

[4] = Stability in simulated intestinal fluid (SIF); format: in vitro ADME; conditions: SIF pH 6.79 with pancreatin, 2 μM, 37 °C, 24 h incubation
Protocol: as §3, §4, §5

[5] = Stability in mouse liver microsomes (MLM); format: in vitro ADME; conditions: for CLint scaled at 10 μM / half-life at 10 μM / microsomal CLint at 10 μM: C57BL/6, pH 7.4, n = 3
[6] = system: leptin-deficient ob/ob mice; assay: Glucose lowering in vivo in diabetic ob/ob mice; conditions: 50 mg/kg p.o.; for hypoglycemic effect (in words): 0-24 h
Protocol: In vivo efficacy of compound PSN-357 and conjugate 6 were studied on leptin-deficient ob/ob mice. Metformin was chosen as a positive control. […] Especially, there was still significant decrease in BG levels by conjugate 6 up to 6 h after administration. The effect might be due to the fact that 6 acts in a sustained release and longer acting manners. It is noteworthy that the findings are highly consistent with the results from in vivo pharmacokinetic studies.
Five- to six-week old obese, diabetic ob/ob mice (male C57BL/6 J) and their lean, nondiabetic male C57BL/6 J littermates were provided by the Model Animal Research Center of Nanjing University, and housed under standard animal care practices with ad libitum access to food and water throughout the procedures. After 1 week acclimation, blood was collected from the retroorbital sinus for plasma glucose determination, and mice were randomized to groups with similar mean ± SD. Mice were then dosed p.o. daily for 4 days with vehicle consisting of DMSO/PEG400/H-β-CD (1:3:6, v/v/v). On day 5, mice were treated p.o. with PSN-357 (50 mg/kg) or conjugate 6 (50 mg/kg) or vehicle, then bled at 0, 1, 2, 3, 6 and 24 h post-dose for plasma glucose determination. Statistical analysis of the hypoglycemic effect was determined by unpaired t test with the ob/ob mice vehicle treated group.

SMILES | IC50 ([1]; Rattus norvegicus, Hepatocyte, 1 h, read-out: IC50 (glycogenolysis inhibition, rat hepatocytes), isolated rat hepatocytes, 60-min incubation with 0.3 nM glucagon) [µM] | IC50 ([1]; read-out: IC50 (glycogenolysis inhibition, rat hepatocytes), isolated rat hepatocytes, 60-min incubation with 0.3 nM glucagon) [µM] | IC50 [2] [µM] | IC50 ([2]; Homo sapiens, HepG2, 1 h) [µM] | stability in SGF (in words) [3] | stability in SIF (in words) [4] | metabolic stability in MLM (in words) [5] | CLint scaled at 10 μM [5] [mL/min/kg] | half-life at 10 μM [5] [min] | microsomal CLint at 10 μM [5] [µL/min/mg] | hypoglycemic effect (in words) ([6]; n = 10, 50 mg/kg) | BG level at largest drop ([6]; at 3 h, p < 0.005) | IC50 ([1]; Hepatocyte, 1 h, isolated rat hepatocytes, 60-min incubation with 0.3 nM glucagon, read-out: IC50 (glycogenolysis inhibition, rat hepatocytes)) [µM] | hypoglycemic effect (in words) ([6]; n = 10) | blood glucose (BG) nadir ([6]; at 1 h, p < 0.005 vs control ob/ob mice) [mM]
C[C@H](CCC(=O)N[C@@H](CC(=O)O)C(=O)OC1CCN(C(=O)[C@H](Cc2ccc(F)cc2)NC(=O)c2cc3cc(Cl)ncc3[nH]2)CC1)[C@H]1CC[C@H]2[C@@H]3[C@H](O)C[C@@H]4C[C@H](O)CC[C@]4(C)[C@H]3C[C@H](O)[C@]12C [Conjugate 6] | 13.4 | 13.4 ± 2.55 | 6.12 ± 1.38 | 6.1 | stable | stable up to 24 h | considerable metabolic stability | 64.9 | 84.5 | 16.4 | small but significant hypoglycemic effects | around 7.79 mmol/L |  |  | 
O=C(N[C@@H](Cc1ccc(F)cc1)C(=O)N1CCC(O)CC1)c1cc2cc(Cl)ncc2[nH]1 [PSN-357] |  |  |  | 3.1 ± 0.37 |  |  | good metabolic stability | < 38 | > 145 | < 9.6 |  |  | 10.7 ± 2.73 | significantly reduc the blood glucose | 6.36 ± 1.46

Reference: article PMC5320518, “Novel Liver-targeted conjugates of Glycogen Phosphorylase Inhibitor PSN-357 for the Treatment of Diabetes: Design, Synthesis, Pharmacokinetic and Pharmacological Evaluations” (Scientific Reports, 2017)
